Results: US20090005398A1, “Methods For The Treatment of Central Nervous System Tumors” (priority 2007, published 2009)

Experiments:
A549 = assay: Methylene blue growth inhibition assay; format: cell-based; settings: Homo sapiens, 72 h
Procedure: (§1) Generally, exponentially growing cell lines of different tumor origins, cultured in appropriate media containing 10% fetal bovine serum at 37° C. in a 5% CO2 incubator were plated at low density (less than 2000 cells/well) in 96-well plates. Twenty four hours post-plating, cells were treated with different concentrations of compound ranging from 10 uM to 0.04 nM. Several wells were left untreated as a control. Seventy two hours post-treatment, cell numbers were determined using 100 μl per well of methylene blue (Sigma M9140) (0.5% in 50:50 Ethanol:water). Stain was incubated at room temperature for 30 minutes before plates were rinsed and dye solubilized in 1% N-lauroyl sarcosine, sodium salt, (Sigma L5125, in PBS) (further details of a methylene blue assay are described below). Plates were read on a microplate reader, measuring the OD at 620 nm.
(§2) Concentration of test compound that inhibited 50% of cell growth (IC50) was determined by 4 parameter fit of data using XLfit, (value of no cell control was subtracted from all samples for background). The data are shown in Table 1 below and represent a compilation of several different experiments, each performed using the general parameters outlined above, although minor variations may have been employed in some instances.
(§3) In one assay, normal human foreskin fibroblasts (HFF), human colon (HCT116, RKO), lung (H460, A549) and breast (MCF7) tumor cell lines were cultured in high glucose DMEM (Life Technologies) containing 10% fetal bovine serum (FBS) at 37° C. in a humidified 5% CO2, 95% air incubator. Cells were harvested using trypsin/EDTA, counted using a haemocytometer, and plated in 100 μL of culture media per well, at the following densities, in a 96-well tissue culture plate (Falcon 3075): HFF 5,000 cells/well, HCT116 3,000 cells/well, RKO 2,500 cells/well, H460 2,500 cells/well, A549 5,000 cells/well, MCF7 4,000 cells/well. The next day, compound was diluted in low glucose DMEM containing 100 μg/mL gentamicin, at twice the final required concentration, from 10 mM stock solutions in DMSO. 100 μL/well of these dilutions were added to the 100 μL of media currently in the assay plates. Medium containing 0.6% DMSO was added to control wells. The final concentration of DMSO in all wells was 0.3%. Cells were incubated at 37° C., 5% CO2 for 72 h. Medium was removed by aspiration. Cell biomass was estimated by staining cells with 80 μL per well methylene blue (Sigma M9140, 0.5% in 50:50 ethanol:water), and incubation at room temperature for 30-60 min. Stain was removed by aspiration and the plates rinsed by immersion in water, then air-dried. To release stain from the cells, 100 μL of solubilization solution was added (1% N-lauroyl sarcosine, Sodium salt, Sigma L5125, in PBS), and plates were shaken gently for about 30 min. Optical density at 620 nm was measured on a microplate reader. Percent inhibition of cell growth was calculated relative to vehicle treated control wells. Concentration of compound that inhibits 50% of cell growth (IC50) was interpolated using nonlinear regression (Levenberg-Marquardt) and the equation, y=Vmax*(1−(x/(K+x)))+Y2, where “K” was equal to the IC50.

H460 = assay: Methylene blue growth inhibition assay; format: cell-based; settings: Homo sapiens, NCI-H460, 72 h
Procedure: as §1, §2, §3

HCT116 = assay: Methylene blue growth inhibition assay; format: cell-based; settings: Homo sapiens, HCT-116, 72 h
Procedure: as §1, §2, §3

[1] = test system: HFF (normal human foreskin fibroblasts); assay: Methylene blue growth inhibition assay; format: cell-based; settings: Fibroblast, 72 h
Procedure: as §1, §2, §3

MCF7 = assay: Methylene blue growth inhibition assay; format: cell-based; settings: Homo sapiens, 72 h
Procedure: as §1, §2, §3

RKO = assay: Methylene blue growth inhibition assay; format: cell-based; settings: Homo sapiens, 72 h
Procedure: as §1, §2, §3

[2] = High throughput solubility assay; format: physicochemical; settings: aqueous buffer, pH 7.4, 0.05M phosphate buffer
Procedure: Two samples are prepared. One (the standard sample) contains the compound at a fixed concentration of 20 μM in an aqueous/organic mixed solvent cocktail. The other (the test sample) contains the compound at a maximum concentration of 200 μM in pH 7.4, 0.05M phosphate buffer and shaking for 24 h. The test sample is filtered by 0.45μ filter and then spun for 10 min to remove any undissolved solid. HPLC analyses are preformed on these samples. The peak areas are used for computing solubility.

A172 = assay: Multiple cell line screen, cell proliferation; format: cell-based; settings: Homo sapiens, A 172, 72 h; glioblastoma; nuclei count, 3 days
Procedure: (§4) Growth properties for multiple cell lines were used to determine two seeding densities for each cell line that would be used in the screen. Cell lines were thawed and grown to 70-80% confluency before being used in the assay. On day −1, cells were seeded at 2 densities in 384-well plates and incubated at 37° C. overnight. Stock compound plates were prepared in advance which contained dimethyl sulfoxide (DMSO) alone and a 9-point half-log decreasing dose range of the compound in DMSO. These plates were stored at −80° C. and each plate was only thawed once and used. On day 0, the main assay plates received compound or DMSO via a sonic delivery system (ECHO). The highest final concentration of compound of the dose range in the culture plates was 10 uM. These plates were cultured at 37° C. for 3 days.
(§5) On day 3, the compound treated plates were stained and fixed to measure proliferation, apoptosis, and mitotic index. A nuclear stain was used to identify cells in the wells. By counting the number of nuclei, the proliferation index of compound treated groups were calculated as a percentage relative to the DMSO control, which was set to 100%. The IC50 values were calculated using model 205 in ExcelFit.

D283Med = assay: Multiple cell line screen, cell proliferation; format: cell-based; settings: Homo sapiens, D283 Med, 72 h; medulloblastoma; nuclei count, 3 days
Procedure: as §4, §5

DBTRG-05MG = assay: Multiple cell line screen, cell proliferation; format: cell-based; settings: Homo sapiens, 72 h, glioblastoma, nuclei count, 3 days
Procedure: as §4, §5

DK-MG = assay: Multiple cell line screen, cell proliferation; format: cell-based; settings: 72 h; glioblastoma; nuclei count, 3 days
Procedure: as §4, §5

H4 = assay: Multiple cell line screen, cell proliferation; format: cell-based; settings: 72 h; glioma; nuclei count, 3 days
Procedure: as §4, §5

SF-268 = assay: Multiple cell line screen, cell proliferation; format: cell-based; settings: Homo sapiens, SF-268, 72 h; glioblastoma; nuclei count, 3 days
Procedure: as §4, §5

SF-295 = assay: Multiple cell line screen, cell proliferation; format: cell-based; settings: Homo sapiens, SF-295, 72 h; glioblastoma; nuclei count, 3 days
Procedure: as §4, §5

SF-539 = assay: Multiple cell line screen, cell proliferation; format: cell-based; settings: Homo sapiens, SF-539, 72 h; astrocytoma; nuclei count, 3 days
Procedure: as §4, §5

SNB-75 = assay: Multiple cell line screen, cell proliferation; format: cell-based; settings: Homo sapiens, SNB-75, 72 h; glioblastoma; nuclei count, 3 days
Procedure: as §4, §5

SMILES: C[C@@H](Oc1cc(-n2cnc3ccc(CN4CCN(C)CC4)cc32)sc1C(N)=O)c1ccccc1C(F)(F)F [Example 1, 5-{6-[(4-Methylpiperazin-1-yl)methyl]-1H-benzimidazol-1-yl}-3-{(1R)-1-[2-(trifluoromethyl)phenyl]ethoxy}thiophene-2-carboxamide]
- IC50 (A549): < 100 nM
- IC50 (H460): < 100 nM
- IC50 (HCT116): < 100 nM
- IC50 [1]: < 100 nM
- IC50 (MCF7): < 100 nM
- IC50 (RKO): < 100 nM
- solubility at 24 h [2]: > 100 µM
- IC50 (A172): < 50 nM
- IC50 (D283Med): < 50 nM
- IC50 (DBTRG-05MG): < 50 nM
- IC50 (DK-MG): < 50 nM
- IC50 (H4): < 50 nM
- IC50 (SF-268): < 50 nM
- IC50 (SF-295): < 50 nM
- IC50 (SF-539): < 50 nM
- IC50 (SNB-75): 50 to 100 nM
